Literature values as cited in patent US7618965B2, “(Arylamidoanilino)nitroethylene compounds” (OSI Pharmaceuticals, Inc., priority 2004, dated 2009).
Structures can show the parent of a compound that is named as a salt.

Tests used:
[1] = system: MO7e human leukemia cells
[2] = system: MO7e human leukemia cells; remark: listed apart in the source

Which “Kit ligand-stimulated growth of MO7e cells” value [1] does the source give for `Cc1ccc(NC(=O)c2ccc(CN3CCN(C)CC3)cc2)cc1Nc1nccc(-c2cccnc2)n1` [Gleevec, imatinib mesylate] here?
Its value is “inhibited”.

What about the “GM-CSF stimulated growth of MO7e cells” value [2] of the same molecule?
The value was “not affected”.
